17 compounds from patent US20260226048A1, “MULTI-CYCLIC IRAK AND FLT3 INHIBITING COMPOUNDS AND USES THEREOF” (CHILDREN'S HOSPITAL MEDICAL CENTER, priority 2023, published 2026) can be followed below.

Broadly, the IC50 is the point on the concentration scale where inhibition reaches its midpoint.

The structures appear in SMILES notation. Like-named read-outs stand apart in the source and are kept apart here.

The target in one test is T1, IRAK1 (Homo sapiens, UniProt P51617).
T1 construct: purchased Reaction Biology (RBC HotSpot)
T1 sequence (P51617 whole entry): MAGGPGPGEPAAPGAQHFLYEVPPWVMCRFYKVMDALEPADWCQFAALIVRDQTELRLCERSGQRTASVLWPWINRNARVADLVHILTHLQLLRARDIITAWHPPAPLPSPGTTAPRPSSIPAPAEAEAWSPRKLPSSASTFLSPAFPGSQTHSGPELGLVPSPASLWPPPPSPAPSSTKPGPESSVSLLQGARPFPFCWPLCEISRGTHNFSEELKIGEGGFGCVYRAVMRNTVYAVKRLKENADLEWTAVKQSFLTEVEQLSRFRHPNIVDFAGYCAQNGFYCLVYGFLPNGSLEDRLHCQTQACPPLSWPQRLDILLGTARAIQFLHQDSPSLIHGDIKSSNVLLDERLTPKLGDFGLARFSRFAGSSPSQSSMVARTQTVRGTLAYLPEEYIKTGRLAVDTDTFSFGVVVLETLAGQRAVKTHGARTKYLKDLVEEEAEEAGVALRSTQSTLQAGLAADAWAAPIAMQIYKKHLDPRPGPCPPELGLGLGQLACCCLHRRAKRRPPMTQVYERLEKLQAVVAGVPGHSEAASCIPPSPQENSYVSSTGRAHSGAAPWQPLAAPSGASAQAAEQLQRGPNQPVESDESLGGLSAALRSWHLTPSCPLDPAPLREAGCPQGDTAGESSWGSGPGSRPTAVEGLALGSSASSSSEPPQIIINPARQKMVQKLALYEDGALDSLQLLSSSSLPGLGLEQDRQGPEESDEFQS
Nature of the test: RBC HotSpot Kinase Assay, IRAK1. The following applies: isolated kinase enzyme, 33P-ATP, P81 filter-binding. Format: biochemical. The text has this:
(§1) This assay uses the isolated kinase enzyme. […] Unlike kinase binding assays that measure competition for ATP, the HotSpot Kinase Assay is a functional assay that measures catalytic activity; as such it measures relative functional potency regardless of the mechanism of enzyme inhibition. This assay uses the form of the various enzymes that are easiest to express, which may not necessarily be the form of the enzyme that exist in the cell. (Sometimes the carboxy terminus has been truncated to aid in expression, or, if it is a receptor kinase, the enzyme itself is isolated from the other parts of the receptor that are involved in regulating kinase activity.)
(§2) The reagent used was as follows: Base Reaction buffer; 20 mM Hepes (pH 7.5), 10 mM MgCl2, 1 mM EGTA, 0.01% Brij35, 0.02 mg/ml BSA, 0.1 mM Na3VO4, 2 mM DTT, 1% DMSO. Required cofactors were added individually to each kinase reaction.

For the next test, the system named is MOLM14 D835Y cells. Nature of the test: MOLM14 D835Y cell viability assay (Cell Titer Glo). In kind it is cell-based. The following applies: cell viability, Cell Titer Glo, 48 hours, read-out: MOLM14 D835Y IC50. The method, then:
Both cell lines have activated FLT3 receptors, each of which carry additional resistance mutations in the kinase domain (D835Y and F691L, respectively).
For viability/cytotoxicity assessments, cells were seeded into 1536-well white polystyrene tissue culture-treated Greiner plates using a Multidrop Combi dispenser (ThermoFisher), in final volume 5 μL of growth media per well, at a density of 1000 cells per well. […] Plates were incubated for 48 hours at standard incubator conditions covered by a stainless steel gasketed lid to prevent evaporation. 48 hours post compound addition, 3 μL of Cell Titer Glo (Promega) were added to each well and plates were incubated at room temperature for 15 minutes with the stainless-steel lid in place. Luminescence readings were taken using a Viewlux imager (PerkinElmer) with a 2 second exposure time per plate.
Background: In ATP-based viability assays light output follows the ATP content of the culture.

The target in the next test is T2, IRAK4 (Homo sapiens, UniProt Q9NWZ3).
T2 sequence (Q9NWZ3 1-460): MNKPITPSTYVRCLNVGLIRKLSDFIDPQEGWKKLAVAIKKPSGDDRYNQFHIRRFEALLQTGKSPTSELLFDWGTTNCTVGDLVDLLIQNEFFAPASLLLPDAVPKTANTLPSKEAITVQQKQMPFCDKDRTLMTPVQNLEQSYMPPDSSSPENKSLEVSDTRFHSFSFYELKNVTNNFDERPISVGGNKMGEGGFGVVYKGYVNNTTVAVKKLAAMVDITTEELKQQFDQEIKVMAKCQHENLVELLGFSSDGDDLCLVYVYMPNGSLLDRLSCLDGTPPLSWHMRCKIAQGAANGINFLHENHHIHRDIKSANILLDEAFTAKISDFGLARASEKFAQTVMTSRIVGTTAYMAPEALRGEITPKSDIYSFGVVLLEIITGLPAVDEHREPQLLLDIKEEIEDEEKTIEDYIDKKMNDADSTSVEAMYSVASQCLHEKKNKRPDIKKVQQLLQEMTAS
Nature of the test: RBC HotSpot Kinase Assay, IRAK4. In kind it is biochemical. Details: purchased Reaction Biology (RBC HotSpot). The following applies: isolated kinase enzyme, 33P-ATP, P81 filter-binding.
Description: as §1, with “enzyme. This assay is very useful for determining competition of the inhibitor for ATP and/or substrates and for measuring the kinetics of enzyme inhibition.” for “enzyme.”
as §2
The reaction procedure was as follows: • 1) Substrates were prepared in freshly prepared Reaction Buffer. • 2) Any required cofactors were delivered to the substrate solution above. • 3) Kinase was delivered into the substrate solution and gently mixed. • 4) Compounds were delivered in 1000A DM into the kinase reaction mixture by Acoustic technology (Echo550; nanoliter range), followed by incubation for 20 min at room temp. • 5) 33P-ATP was delivered into the reaction mixture to initiate the reaction. • 6) The mixture was incubated for 2 hours at room temperature. • 7) Kinase activity was detected by P81 filter-binding method.

Another test deals with T3, FLT3 (Homo sapiens, UniProt P36888).
T3 sequence (P36888 27-993): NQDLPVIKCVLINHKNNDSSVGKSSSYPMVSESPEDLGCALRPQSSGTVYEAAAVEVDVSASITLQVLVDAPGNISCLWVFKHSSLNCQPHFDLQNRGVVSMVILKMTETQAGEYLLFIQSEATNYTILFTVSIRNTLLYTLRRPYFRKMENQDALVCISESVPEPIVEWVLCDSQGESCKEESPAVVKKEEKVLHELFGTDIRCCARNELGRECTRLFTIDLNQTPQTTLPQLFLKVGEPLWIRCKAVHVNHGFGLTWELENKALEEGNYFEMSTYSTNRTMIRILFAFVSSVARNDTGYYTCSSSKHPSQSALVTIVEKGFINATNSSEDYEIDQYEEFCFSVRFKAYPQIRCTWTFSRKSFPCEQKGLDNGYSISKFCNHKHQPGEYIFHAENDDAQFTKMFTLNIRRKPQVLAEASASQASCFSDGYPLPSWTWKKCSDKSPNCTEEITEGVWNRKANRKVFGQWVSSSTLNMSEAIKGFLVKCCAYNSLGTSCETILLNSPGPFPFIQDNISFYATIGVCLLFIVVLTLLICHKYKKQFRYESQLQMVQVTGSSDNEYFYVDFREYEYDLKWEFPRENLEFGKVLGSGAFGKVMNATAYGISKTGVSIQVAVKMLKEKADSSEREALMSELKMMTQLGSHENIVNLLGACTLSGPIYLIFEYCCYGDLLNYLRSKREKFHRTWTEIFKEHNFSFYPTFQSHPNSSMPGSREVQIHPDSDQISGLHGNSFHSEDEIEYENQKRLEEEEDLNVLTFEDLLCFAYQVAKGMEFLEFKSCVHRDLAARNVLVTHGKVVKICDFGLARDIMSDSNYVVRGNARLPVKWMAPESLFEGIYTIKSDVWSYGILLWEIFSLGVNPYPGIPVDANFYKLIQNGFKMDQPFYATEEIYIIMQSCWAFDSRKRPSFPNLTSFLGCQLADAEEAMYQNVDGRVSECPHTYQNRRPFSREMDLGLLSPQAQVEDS
Nature of the test: RBC HotSpot Kinase Assay, FLT3. To be noted: isolated kinase enzyme, 33P-ATP, P81 filter-binding. Format: biochemical. Further details: purchased Reaction Biology (RBC HotSpot).
Description: as §1, §2

For `CC(O)(c1ccc2ncc(-c3ccnc(N[C@H]4CNC[C@@H]4F)n3)n2c1)C(F)(F)F` (single isomer, unassigned) [Compound 24a], the IC50 on IRAK1 was 16 nM; in the test on MOLM14 D835Y cells (Homo sapiens, MOLM-14, 48 h), 41 nM; at IRAK4 it was 0.9 nM; on FLT3, less than 0.5 nM.

Regarding `CC(O)(c1ccc2ncc(-c3ccnc(N[C@H]4CNC[C@@H]4F)n3)n2c1)C(F)(F)F` (single isomer, unassigned) [Compound 26a], the concentration for half-maximal inhibition (IC50) at IRAK1 was 5 nM; with MOLM14 D835Y cells, 23 nM; on IRAK4, less than 0.5 nM; at FLT3, less than 0.5 nM.

In the case of `CC(O)(c1ccc2ncc(-c3cncc(N[C@@H]4CCCNC4)n3)n2c1)C(F)(F)F` (single isomer, unassigned) [Compound 29a], the IC50 was 27 nM at IRAK1, 106 nM with MOLM14 D835Y cells, 0.8 nM at IRAK4 and 1 nM at FLT3.

Take `CC(O)(c1ccc2ncc(-c3cncc(N[C@H]4CNC[C@@H]4F)n3)n2c1)C(F)(F)F` (single isomer, unassigned) [Compound 30a]: the IC50 on IRAK1 stood at 108 nM; with MOLM14 D835Y cells (Homo sapiens, MOLM-14, 48 h), 576 nM; at IRAK4 it was 5 nM; at FLT3 it was 2 nM.

In the case of `CC(O)(c1ccc2ncc(-c3cncc(N[C@H]4CNC[C@@H]4F)n3)n2c1)C(F)(F)F` (single isomer, unassigned) [Compound 32a], the IC50 at IRAK1 is 53 nM; with MOLM14 D835Y cells, 408 nM; on IRAK4, 1 nM; on FLT3, 2 nM.

On to `CC(O)(c1ccc2ncc(-c3cncc(N[C@H]4CNCC[C@@H]4F)n3)n2c1)C(F)(F)F` (single isomer, unassigned) [Compound 33a], for which the IC50 turned out to be 9 nM at IRAK1, 65 nM in the test with MOLM14 D835Y cells, 0.8 nM on IRAK4 and 0.7 nM at FLT3.

`CC(O)(c1ccc2ncc(-c3nc(N[C@H]4CNC[C@@H]4F)ncc3F)n2c1)C(F)(F)F` (single isomer, unassigned) [Compound 36a]: the IC50 at IRAK1 was 4 nM; with MOLM14 D835Y cells (Homo sapiens, MOLM-14, 48 h), 41 nM; at IRAK4, 2 nM; on FLT3 it was less than 0.5 nM.

As to `CC(O)(c1ccc2ncc(-c3nc(N[C@H]4CNC[C@@H]4F)ncc3F)n2c1)C(F)(F)F` (single isomer, unassigned) [Compound 38a], the IC50 at IRAK1 was 1 nM; in the test with MOLM14 D835Y cells, 51 nM; at IRAK4, 0.6 nM; at FLT3, less than 0.5 nM.

Turning to `CC(O)(c1ccc2ncc(-c3nc(N[C@@H]4CCCNC4)ncc3F)n2c1)C(F)(F)F` (single isomer, unassigned) [Compound 39a], the IC50 at IRAK1 is 2 nM; in the test on MOLM14 D835Y cells, 32 nM; at IRAK4, 1 nM; on FLT3, less than 0.5 nM.

With `CC(O)(c1cn2c(-c3nc(N[C@@H]4CCCNC4)ncc3F)cnc2cn1)C(F)(F)F` (single isomer, unassigned) [Compound 131a], the IC50 at IRAK1 came to 15 nM; at IRAK4, 28 nM; at FLT3 it was 2 nM.

Regarding `CC(O)(c1cn2c(-c3nc(N[C@@H]4CCCNC4)ncc3F)cnc2cn1)C(F)(F)F` (single isomer, unassigned) [Compound 132a], the results for the concentration for half-maximal inhibition (IC50) at IRAK1, on IRAK4 and on FLT3 were 3 nM, 2 nM and less than 0.5 nM, respectively.

Turning to `CC(O)(c1cn2c(-c3nc(N[C@H]4CNCC[C@@H]4F)ncc3F)cnc2cn1)C(F)(F)F` (single isomer, unassigned) [Compound 133a], the IC50 at IRAK1 is 15 nM; at IRAK4, 15 nM; on FLT3, 1 nM.

Consider `CC(O)(c1cn2c(-c3nc(N[C@H]4CNCC[C@@H]4F)ncc3F)cnc2cn1)C(F)(F)F` (single isomer, unassigned) [Compound 134a], for which the figures for the IC50 on IRAK1, at IRAK4 and on FLT3 were 2 nM, 1 nM and less than 0.5 nM, respectively.

On to `COc1cc2ncc(-c3nc(N[C@H]4CNC[C@@H]4F)ncc3F)n2nc1C1CC1` [Compound 2a, 4-(6-cyclopropyl-7-methoxyimidazo[1,2-b]pyridazin-3-yl)-5-fluoro-N-((3S,4S)-4-fluoropyrrolidin-3-yl)pyrimidin-2-amine], for which the IC50 at IRAK1 was 1 nM; with MOLM14 D835Y cells (Homo sapiens, MOLM-14, 48 h), 4 nM; at IRAK4 it was 0.7 nM; at FLT3, less than 0.5 nM.

Turning to `COc1cc2ncc(-c3nc(N[C@H]4CNCC[C@@H]4F)ncc3F)n2nc1C1(C)COC1` [Compound 70a, 5-fluoro-N-((3S,4S)-4-fluoropiperidin-3-yl)-4-(7-methoxy-6-(3-methyloxetan-3-yl)imidazo[1,2-b]pyridazin-3-yl)pyrimidin-2-amine], the IC50 is 3 nM on IRAK1, less than 0.5 nM at IRAK4 and less than 0.5 nM at FLT3.

On to `[2H]C([2H])([2H])Oc1cc2ncc(-c3ccnc(N[C@H]4CNCC[C@@H]4F)n3)n2nc1C1CC1` [Compound 128a, 4-(6-cyclopropyl-7-(methoxy-d3)imidazo[1,2-b]pyridazin-3-yl)-N-((3S,4S)-4-fluoropiperidin-3-yl)pyrimidin-2-amine], for which the IC50 was 24 nM at IRAK1, 0.7 nM at IRAK4 and less than 0.5 nM on FLT3.

Regarding `[2H]C([2H])([2H])Oc1cc2ncc(-c3ccnc(N[C@@H]4CCCNC4)n3)n2nc1C1CC1` [Compound 129a, (R)-4-(6-cyclopropyl-7-(methoxy-d3)imidazo[1,2-b]pyridazin-3-yl)-N-(piperidin-3-yl)pyrimidin-2-amine], the IC50 at IRAK1 was 86 nM; on IRAK4 it was 2 nM; on FLT3, less than 0.5 nM.
